Source: PubChem BioAssay (NCI)
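Interpolation was linear, between the two tested concentrations surrounding the appropriate level; five concentrations were tested over 48 hours in 96-well plates. GI50 marks 50% less growth. TGI is the concentration that stops growth completely.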

Legend:
Test in all cases: inhibition of tumour cell growth, NCI panel, 48 h
[1] = tested on: 786-0 renal
[2] = tested on: A498 renal
[3] = tested on: A549 NSCLC
[4] = tested on: BT-549 breast
[5] = tested on: CAKI-1 renal
[6] = tested on: CCRF-CEM leukemia
[7] = tested on: COLO 205 colon
[8] = tested on: DU-145 prostate
[9] = tested on: EKVX NSCLC
[10] = tested on: HCC-2998 colon
[11] = tested on: HCT-116 colon
[12] = tested on: HCT-15 colon
[13] = tested on: HOP-62 NSCLC
[14] = tested on: HOP-92 NSCLC
[15] = tested on: HS 578T breast
[16] = tested on: HT29 colon
[17] = tested on: IGROV1 ovarian
[18] = tested on: K-562 leukemia
[19] = tested on: LOX IMVI melanoma
[20] = tested on: M14 melanoma
[21] = tested on: MCF7 breast
[22] = tested on: MDA-MB-231 breast
[23] = tested on: MDA-MB-435
[24] = tested on: MOLT-4 leukemia
[25] = tested on: NCI-H226 lung
[26] = tested on: NCI-H23 lung
[27] = tested on: NCI-H460 lung
[28] = tested on: NCI-H522 lung
[29] = tested on: NCI/ADR-RES ovarian
[30] = tested on: OVCAR-3 ovarian
[31] = tested on: OVCAR-4 ovarian
[32] = tested on: OVCAR-5 ovarian
[33] = tested on: OVCAR-8 ovarian
[34] = tested on: PC-3 prostate
[35] = tested on: RPMI-8226 leukemia
[36] = tested on: RXF 393 renal
[37] = tested on: SF-268 CNS
[38] = tested on: SF-295 CNS
[39] = tested on: SF-539 CNS
[40] = tested on: SK-MEL-2 melanoma
[41] = tested on: SK-MEL-28 melanoma
[42] = tested on: SK-MEL-5 melanoma
[43] = tested on: SK-OV-3 ovarian
[44] = tested on: SN12C renal
[45] = tested on: SNB-19 CNS
[46] = tested on: SNB-75 CNS
[47] = tested on: SW-620 colon
[48] = tested on: T-47D breast
[49] = tested on: U251 CNS
[50] = tested on: UACC-257 melanoma
[51] = tested on: UACC-62 melanoma
[52] = tested on: UO-31 renal
[53] = tested on: ACHN renal
[54] = tested on: HL-60(TB) leukemia
[55] = tested on: KM12 colon
[56] = tested on: MALME-3M melanoma
[57] = tested on: SR leukemia
[58] = tested on: TK-10 renal

For Cc1cc(C2CC(O)C(CO)O2)cc2c(=O)[nH]c(N)nc12 (centres undefined), the GI50 [1] was > 100000 nM, the TGI [1] was > 100 µM and the GI50 [2] was > 100000 nM. For the same molecule, the TGI [2] was > 100000 nM, the GI50 [3] was > 100000 nM and the TGI [3] was > 100 µM. For the same molecule, the GI50 [4] was > 100000 nM, the TGI [4] was > 100 µM and the GI50 [5] was > 100000 nM. The TGI [5] was > 100 µM, the GI50 [6] was > 100000 nM and the TGI [6] was > 100 µM. The GI50 [7] was > 100000 nM, the TGI [7] was > 100000 nM and the GI50 [8] was > 100 µM. The TGI [8] was > 100 µM, the GI50 [9] was > 100000 nM and the TGI [9] was > 100 µM. The GI50 [10] was > 100000 nM, the TGI [10] was > 100 µM and the GI50 [11] was > 100000 nM. The TGI [11] was > 100 µM, the GI50 [12] was > 100000 nM and the TGI [12] was > 100 µM. The GI50 [13] was > 100000 nM, the TGI [13] was > 100 µM and the GI50 [14] was > 100000 nM. For the same molecule, the TGI [14] was > 100 µM, the GI50 [15] was > 100000 nM and the TGI [15] was > 100000 nM. The GI50 [16] was > 100000 nM, the TGI [16] was > 100 µM and the GI50 [17] was 71 µM. The TGI [17] was > 100 µM, the GI50 [18] was > 100000 nM and the TGI [18] was > 100 µM. For the same molecule, the GI50 [19] was > 100000 nM, the TGI [19] was > 100 µM and the GI50 [20] was > 100000 nM. For the same molecule, the TGI [20] was > 100 µM, the GI50 [21] was > 100000 nM and the TGI [21] was > 100 µM. The GI50 [22] was > 100000 nM, the TGI [22] was > 100 µM and the GI50 [23] was > 100 µM. For the same molecule, the TGI [23] was > 100 µM, the GI50 [24] was > 100000 nM and the TGI [24] was > 100 µM. The GI50 [25] was > 100000 nM, the TGI [25] was > 100 µM and the GI50 [26] was > 100000 nM. The TGI [26] was > 100 µM, the GI50 [27] was > 100000 nM and the TGI [27] was > 100 µM. The GI50 [28] was > 100000 nM, the TGI [28] was > 100000 nM and the GI50 [29] was > 100000 nM. For the same molecule, the TGI [29] was > 100000 nM, the GI50 [30] was > 100000 nM and the TGI [30] was > 100000 nM. The GI50 [31] was > 100000 nM, the TGI [31] was > 100 µM and the GI50 [32] was > 100000 nM. For the same molecule, the TGI [32] was > 100 µM, the GI50 [33] was > 100000 nM and the TGI [33] was > 100 µM. The GI50 [34] was > 100000 nM, the TGI [34] was > 100 µM and the GI50 [35] was > 100000 nM. For the same molecule, the TGI [35] was > 100 µM, the GI50 [36] was > 100000 nM and the TGI [36] was > 100 µM. For the same molecule, the GI50 [37] was > 100000 nM, the TGI [37] was > 100 µM and the GI50 [38] was > 100000 nM. For the same molecule, the TGI [38] was > 100 µM, the GI50 [39] was > 100000 nM and the TGI [39] was > 100 µM. For the same molecule, the GI50 [40] was > 100 µM, the TGI [40] was > 100 µM and the GI50 [41] was > 100000 nM. For the same molecule, the TGI [41] was > 100 µM, the GI50 [42] was > 100000 nM and the TGI [42] was > 100000 nM. For the same molecule, the GI50 [43] was > 100000 nM, the TGI [43] was > 100 µM and the GI50 [44] was > 100000 nM. For the same molecule, the TGI [44] was > 100 µM, the GI50 [45] was > 100000 nM and the TGI [45] was > 100 µM. For the same molecule, the GI50 [46] was 81.3 µM, the TGI [46] was > 100 µM and the GI50 [47] was > 100000 nM. For the same molecule, the TGI [47] was > 100 µM, the GI50 [48] was > 100000 nM and the TGI [48] was > 100 µM. For the same molecule, the GI50 [49] was > 100000 nM, the TGI [49] was > 100 µM and the GI50 [50] was > 100000 nM. For the same molecule, the TGI [50] was > 100 µM, the GI50 [51] was > 100000 nM and the TGI [51] was > 100 µM. For the same molecule, the GI50 [52] was > 100000 nM and the TGI [52] was > 100 µM.

COc1ccc2ncn(-c3cc(O[C@H](C)c4ccccc4Cl)c(C(N)=O)s3)c2c1 gave a GI50 [1] of 281 nM, a TGI [1] of 8.27 µM and a GI50 [2] of 44.1 nM. The TGI [2] was 570 nM, the GI50 [3] was 28.7 nM and the TGI [3] was > 25 µM. For the same molecule, the GI50 [53] was 1130 nM, the TGI [53] was > 25 µM and the GI50 [4] was 448 nM. For the same molecule, the TGI [4] was 13.3 µM, the GI50 [5] was 189 nM and the TGI [5] was > 25 µM. The GI50 [6] was 8.61 nM, the TGI [6] was 6.35 µM and the GI50 [7] was 9.53 nM. For the same molecule, the TGI [7] was 436 nM, the GI50 [9] was 183 nM and the TGI [9] was > 25 µM. The GI50 [10] was 34.8 nM, the TGI [10] was 5.51 µM and the GI50 [11] was 21 nM. The TGI [11] was 3.64 µM, the GI50 [12] was 20.3 nM and the TGI [12] was > 25 µM. It also gave a GI50 [54] of 8.49 nM, a TGI [54] of 2810 nM and a GI50 [13] of 19.2 nM. For the same molecule, the TGI [13] was > 25 µM, the GI50 [14] was 404 nM and the TGI [14] was 8.01 µM. It also gave a GI50 [15] of 76.3 nM, a TGI [15] of 1260 nM and a GI50 [16] of 8.13 nM. The TGI [16] was 9.13 µM, the GI50 [17] was 0.0284 µM and the TGI [17] was > 25 µM. The GI50 [18] was 14.5 nM, the TGI [18] was > 25 µM and the GI50 [55] was 9.07 nM. It also gave a TGI [55] of 5.23 µM, a GI50 [19] of 28 nM and a TGI [19] of 4.83 µM. For the same molecule, the GI50 [20] was 16.4 nM, the TGI [20] was > 25 µM and the GI50 [56] was 8.21 µM. The TGI [56] was > 25 µM, the GI50 [21] was 8.95 nM and the TGI [21] was 4.17 µM. For the same molecule, the GI50 [22] was 45.4 nM, the TGI [22] was > 17.3 µM and the GI50 [24] was 12.2 nM. For the same molecule, the TGI [24] was > 10.5 µM, the GI50 [25] was 600 nM and the TGI [25] was 12.7 µM. For the same molecule, the GI50 [26] was 19.7 nM, the TGI [26] was > 18.3 µM and the GI50 [27] was 13.3 nM. For the same molecule, the TGI [27] was 3.51 µM, the GI50 [28] was 16.5 nM and the TGI [28] was 221 nM. The GI50 [29] was 10.7 nM, the TGI [29] was 2880 nM and the GI50 [30] was 8.63 nM. For the same molecule, the TGI [30] was 1070 nM, the GI50 [31] was 869 nM and the TGI [31] was > 25 µM. The GI50 [32] was 26.3 nM, the TGI [32] was > 25 µM and the GI50 [33] was 27.4 nM. For the same molecule, the TGI [33] was 20.8 µM, the GI50 [34] was 73.3 nM and the TGI [34] was > 25 µM. It also gave a GI50 [35] of 16 nM, a TGI [35] of 8.71 µM and a GI50 [36] of 10.5 nM. The TGI [36] was 3.78 µM, the GI50 [37] was 31.6 nM and the TGI [37] was > 25 µM. It also gave a GI50 [38] of 18.9 nM, a TGI [38] of 7.05 µM and a GI50 [39] of 37.4 nM. For the same molecule, the TGI [39] was 5.54 µM, the GI50 [41] was 105 nM and the TGI [41] was > 25 µM. For the same molecule, the GI50 [42] was 9.51 nM, the TGI [42] was 540 nM and the GI50 [43] was 24.6 nM. The TGI [43] was > 25 µM, the GI50 [44] was 954 nM and the TGI [44] was > 25 µM. The GI50 [45] was 81.4 nM, the TGI [45] was > 25 µM and the GI50 [46] was 0.148 µM. The TGI [46] was > 19.7 µM, the GI50 [57] was 12 nM and the TGI [57] was 1530 nM. It also gave a GI50 [47] of 9.26 nM, a TGI [47] of 3.69 µM and a GI50 [48] of 1070 nM. It also gave a TGI [48] of 8.3 µM, a GI50 [58] of 1190 nM and a TGI [58] of 11.1 µM. For the same molecule, the GI50 [49] was 23.4 nM, the TGI [49] was > 25 µM and the GI50 [50] was 444 nM. For the same molecule, the TGI [50] was > 22.7 µM, the GI50 [51] was 21.3 nM and the TGI [51] was 3.99 µM. It also gave a GI50 [52] of 1410 nM and a TGI [52] of 17 µM.
